This passage reports IC50 results from US9403830B2, “Inhibitors of leukotriene production” (Boehringer Ingelheim International GmbH, priority 2012, dated 2016).

For one assay, the target named is T1, human LTA4 hydrolase (Homo sapiens, UniProt P09960).
T1 sequence (P09960 1-611): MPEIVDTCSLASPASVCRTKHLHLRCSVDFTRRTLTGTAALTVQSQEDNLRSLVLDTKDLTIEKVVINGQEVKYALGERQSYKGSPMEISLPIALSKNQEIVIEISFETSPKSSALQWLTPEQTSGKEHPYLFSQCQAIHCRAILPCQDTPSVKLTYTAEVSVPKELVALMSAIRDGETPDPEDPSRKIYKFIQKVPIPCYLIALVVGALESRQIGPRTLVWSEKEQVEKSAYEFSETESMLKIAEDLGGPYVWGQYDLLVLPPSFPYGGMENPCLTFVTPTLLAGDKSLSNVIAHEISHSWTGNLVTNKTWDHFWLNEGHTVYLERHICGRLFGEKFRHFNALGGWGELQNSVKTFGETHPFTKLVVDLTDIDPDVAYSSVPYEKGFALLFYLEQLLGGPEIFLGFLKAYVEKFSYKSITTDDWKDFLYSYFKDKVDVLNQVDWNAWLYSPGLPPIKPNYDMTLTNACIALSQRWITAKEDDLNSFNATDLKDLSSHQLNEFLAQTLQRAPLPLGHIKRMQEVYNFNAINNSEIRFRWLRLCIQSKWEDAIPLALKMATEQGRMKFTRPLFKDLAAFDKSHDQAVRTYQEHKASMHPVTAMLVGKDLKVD
As to the kind of experiment: LTA4H Enzyme assay (peptidase, Arg-AMC cleavage). It counts as biochemical. The settings on record: LTA4H enzyme 1 nM, Arg-AMC substrate 50 μM, room temperature 1 h, fluorescence 380/460 nm. The method, then: The compounds of the invention are assessed for the ability to interact with human LTA4 hydrolase in an enzymatic assay that measures the ability of the enzyme to cleave the peptide bond of arginyl-aminomethylcoumarin (Arg-AMC). LTA4H Enzyme (1 nM final), Arg-AMC substrate (50 μM final), and compound are combined in a reaction buffer (50 mM Tris-HCl (pH 7.5), 100 mM KCl, 0.5% bovine serum albumin) at room temperature for 1 h. The formation of product is assessed by measuring the fluorescence of aminomethylcoumarin product (excitation wavelength 380 nm/emission wavelength 460 nm). In general, the preferred potency range (IC50) of compounds in the LTA4H Enzyme assay is between 0.1 nM to 10 μM, the more preferred potency range is 0.1 nM to 0.1 μM, and the most preferred potency range is 0.1 nM to 10 nM.

Assay [1] has as its system LTB4 synthesis in human whole blood. Put plainly: human whole blood (HWB) assay, inhibition of LTB4 production. Type of assay: cell-based. Conditions: heparinized human whole blood, calcimycin 20 μM stimulation, plasma LTB4. The protocol:
The compounds of the invention are additionally tested in a human whole blood (HWB) assay to determine their ability to inhibit the synthesis of LTB4 in a cellular system. Compounds are combined with heparinized human whole blood and incubated for 15 minutes at 37° C. Calcimycin (20 μM final, prepared in phosphate-buffered saline, pH 7.4) is then added and the mixture is incubated for another 30 minutes at 37° C. The samples are centrifuged for 5 min at low speed (1500×g) and the plasma layer is removed. Plasma LTB4 concentrations are then measured using an antibody-based homogenous time-resolved fluorescence method (CisBio, Bedford, Mass.). In general, the preferred potency range (IC50) of compounds in the HWB assay is between 10 nM to 10 μM, the more preferred potency range is 10 nM to 1 μM, and the most preferred potency range is 10 nM to 100 nM.

As for `CC1(NC(=O)CO)CCN(Cc2ccc3cc(Oc4ccc(-c5ccn[nH]5)cn4)ccc3n2)CC1` [Example 46, 2-Hydroxy-N-(4-methyl-1-{6-[5-(2H-pyrazol-3-yl)-pyridin-2-yloxy]-quinolin-2-ylmethyl}-piperidin-4-yl)-acetamide], the IC50 against human LTA4 hydrolase was 1.6 nM; in assay [1], 540 nM.
The like results for `CN(CC(N)=O)Cc1ccc2cc(Oc3ccc(-c4ccn[nH]4)cn3)ccc2n1` [Example 47, 2-(Methyl-{6-[5-(2H-pyrazol-3-yl)-pyridin-2-yloxy]-quinolin-2-ylmethyl}-amino)-acetamide] were, in that order, 1.3 nM and 570 nM.
With `c1cc(-c2ccc(Oc3ccc4nc(CN5CCCC6(COC6)C5)ccc4c3)nc2)[nH]n1` [Example 48, 2-(2-Oxa-6-aza-spiro[3.5]non-6-ylmethyl)-6-[5-(2H-pyrazol-3-yl)-pyridin-2-yloxy]-quinoline], the IC50 on human LTA4 hydrolase came to 2.1 nM; in assay [1] it was 740 nM.
The corresponding values for `O=C1NCC[C@@H]1NCc1ccc2cc(Oc3ccc(-c4ccn[nH]4)cn3)ccc2n1` [Example 49, (S)-3-({6-[5-(2H-Pyrazol-3-yl)-pyridin-2-yloxy]-quinolin-2-ylmethyl}-amino)-pyrrolidin-2-one] are 8.9 nM and 860 nM.
As to `O=C(CO)N1CCCC12CCN(Cc1ccc3cc(Oc4ccc(-c5ccn[nH]5)cn4)ccc3n1)CC2` [Example 50, 2-Hydroxy-1-(8-{6-[5-(2H-pyrazol-3-yl)-pyridin-2-yloxy]-quinolin-2-ylmethyl}-1,8-diaza-spiro[4.5]dec-1-yl)-ethanone], the IC50 on human LTA4 hydrolase came out at 2.8 nM; in assay [1] it was 1100 nM.
As for `NC(=O)[C@@H](NCc1ccc2cc(Oc3ccc(-c4ccn[nH]4)cn3)ccc2n1)c1ccccc1` [Example 51, (S)-2-Phenyl-2-({6-[5-(2H-pyrazol-3-yl)-pyridin-2-yloxy]-quinolin-2-ylmethyl}-amino)-acetamide], the IC50 on human LTA4 hydrolase stood at 8.1 nM; in assay [1], 2200 nM.
Take `c1cc(-c2ccc(Oc3ccc4[nH]c(CN5CCCC5)nc4c3)cc2)[nH]n1` [Example 52, 5-[4-(2H-Pyrazol-3-yl)-phenoxy]-2-pyrrolidin-1-ylmethyl-1H-benzoimidazole]: the IC50 came to 0.12 nM against human LTA4 hydrolase and 66 nM in assay [1].
For `C[C@@H]1CN(Cc2nc3cc(Oc4ccc(-c5ccn[nH]5)cc4)ccc3[nH]2)C[C@H](C)O1` [Example 53, 2-((2R,6S)-2,6-Dimethyl-morpholin-4-ylmethyl)-5-[4-(2H-pyrazol-3-yl)-phenoxy]-1H-benzoimidazole], the IC50 came to 0.096 nM on human LTA4 hydrolase and 67 nM in assay [1].
`c1cc(-c2ccc(Cc3ccc4nc(CN5CCCC5)[nH]c4c3)cc2)[nH]n1` [Example 54, 6-[4-(2H-Pyrazol-3-yl)-benzyl]-2-pyrrolidin-1-ylmethyl-1H-benzoimidazole]: the figures for the concentration for half-maximal inhibition (IC50) (against human LTA4 hydrolase; in assay [1]) were 0.13 nM and 94 nM, respectively.
The like results for `C[C@H]1COC[C@H](C)N1Cc1nc2cc(Oc3ccc(-c4ccn[nH]4)cc3)ccc2[nH]1` [Example 55, 2-((3S,5S)-3,5-Dimethyl-morpholin-4-ylmethyl)-5-[4-(2H-pyrazol-3-yl)-phenoxy]-1H-benzoimidazole] were, in that order, 0.13 nM and 100 nM.
In the case of `C[C@H]1CN(Cc2nc3ccc(Cc4ccc(-c5ccn[nH]5)cc4)cc3[nH]2)C[C@H](C)O1` [Example 56, 2-((2S,6S)-2,6-Dimethyl-morpholin-4-ylmethyl)-6-[4-(2H-pyrazol-3-yl)-benzyl]-1H-benzoimidazole], the IC50 at human LTA4 hydrolase came to 0.18 nM; in assay [1] it was 110 nM.
The corresponding values for `O=C(N1CCN(Cc2nc3cc(Oc4ccc(-c5ccn[nH]5)cc4)ccc3[nH]2)CC1)C(F)(F)F` [Example 57, 2,2,2-Trifluoro-1-(4-[5-[4-(2H-pyrazol-3-yl)-phenoxy]-1H-benzoimidazol-2-ylmethyl]-piperazin-1-yl)-ethanone] are 0.13 nM and 110 nM.
Consider `c1cc(-c2ccc(Oc3ccc4[nH]c(CN5C[C@@H]6CC[C@@H](C5)O6)nc4c3)cc2)[nH]n1` [Example 58, (1S,5S)-3-{5-[4-(2H-Pyrazol-3-yl)-phenoxy]-1H-benzoimidazol-2-ylmethyl}-8-oxa-3-aza-bicyclo[3.2.1]octane], for which the IC50 at human LTA4 hydrolase came to 0.13 nM; in assay [1], 120 nM.
The like results for `c1cc(-c2ccc(Oc3ccc4[nH]c(C5(N6CCOCC6)CC5)nc4c3)cc2)[nH]n1` [Example 59, 2-(1-Morpholin-4-yl-cyclopropyl)-5-[4-(2H-pyrazol-3-yl)-phenoxy]-1H-benzoimidazole] were, in that order, 0.13 nM and 130 nM.
`c1cc(-c2ccc(Cc3ccc4nc(CN5CCOCC5)[nH]c4c3)cc2)[nH]n1` [Example 60, 2-Morpholin-4-ylmethyl-6-[4-(2H-pyrazol-3-yl)-benzyl]-1H-benzoimidazole]: the IC50 against human LTA4 hydrolase came to 0.23 nM; in assay [1] it was 140 nM.
The corresponding values for `COCCN1CCN(Cc2nc3cc(Oc4ccc(-c5ccn[nH]5)cc4)ccc3[nH]2)CC1` [Example 61, 2-[4-(2-Methoxy-ethyl)-piperazin-1-ylmethyl]-5-[4-(2H-pyrazol-3-yl)-phenoxy]-1H-benzoimidazole] are 0.21 nM and 140 nM.
The corresponding values for `C[C@H]1COCCN1Cc1nc2cc(Oc3ccc(-c4ccn[nH]4)cc3)ccc2[nH]1` [Example 62, 2-((S)-3-Methyl-morpholin-4-ylmethyl)-5-[4-(2H-pyrazol-3-yl)-phenoxy]-1H-benzoimidazole] are 0.13 nM and 150 nM.
The corresponding values for `FC(F)(F)CN1CCN(Cc2nc3cc(Oc4ccc(-c5ccn[nH]5)cc4)ccc3[nH]2)CC1` [Example 63, 5-[4-(2H-Pyrazol-3-yl)-phenoxy]-2-[4-(2,2,2-trifluoro-ethyl)-piperazin-1-ylmethyl]-1H-benzoimidazole] are 0.11 nM and 150 nM.
For `CC(C)N1CCN(Cc2nc3cc(Oc4ccc(-c5ccn[nH]5)cc4)ccc3[nH]2)CC1` [Example 64, 2-(4-Isopropyl-piperazin-1-ylmethyl)-5-[4-(2H-pyrazol-3-yl)-phenoxy]-1H-benzoimidazole], the values for the IC50 (at human LTA4 hydrolase; in assay [1]) were 0.14 nM and 180 nM, respectively.
As to `Cc1noc(C2CCN(Cc3nc4cc(Oc5ccc(-c6ccn[nH]6)cc5)ccc4[nH]3)CC2)n1` [Example 65, 2-[4-(3-Methyl-[1,2,4]oxadiazol-5-yl)-piperidin-1-ylmethyl]-5-[4-(2H-pyrazol-3-yl)-phenoxy]-1H-benzoimidazole], the figures for the IC50 (against human LTA4 hydrolase; in assay [1]) were 0.15 nM and 180 nM, respectively.
With `O[C@H]1CCN(Cc2nc3ccc(Oc4ccc(-c5ccn[nH]5)cc4)cc3[nH]2)C1` [Example 66, (S)-1-{6-[4-(2H-Pyrazol-3-yl)-phenoxy]-1H-benzoimidazol-2-ylmethyl}-pyrrolidin-3-ol], the IC50 against human LTA4 hydrolase was determined as 0.14 nM; in assay [1] it was 240 nM.
Take `O=C1CCC(c2cn3cc(Oc4ccc(-c5ccn[nH]5)cc4)ccc3n2)CN1` (centres unmarked) [Example 67, 5-{6-[4-(2H-Pyrazol-3-yl)-phenoxy]-imidazo[1,2-a]pyridin-2-yl}-piperidin-2-one]: the values for the half-maximal inhibitory concentration (IC50) (on human LTA4 hydrolase; in assay [1]) were 1.4 nM and 480 nM, respectively.
On to `O=C1CC[C@H](Oc2ccc3cc(Oc4ccc(-c5ccn[nH]5)cc4)ccc3n2)CN1` [Example 68, (S)-5-{6-[4-(2H-Pyrazol-3-yl)-phenoxy]-quinolin-2-yloxy}-piperidin-2-one], for which the IC50 came out at 4.2 nM against human LTA4 hydrolase and 590 nM in assay [1].
The like results for `O=C(O)c1nc2cc(Oc3ccc(-c4cc[nH]n4)cc3)ccc2[nH]1` [Example 69, 5-[4-(1H-Pyrazol-3-yl)-phenoxy]-1H-benzoimidazole-2-carboxylic acid] were, in that order, 3.9 nM and 650 nM.
The like results for `CC(C)(C)C(=O)N1CCN(Cc2nc3cc(Oc4ccc(-c5ccn[nH]5)cc4)ccc3[nH]2)CC1` [Example 70, 2,2-Dimethyl-1-(4-{5-[4-(2H-pyrazol-3-yl)-phenoxy]-1H-benzoimidazol-2-ylmethyl}-piperazin-1-yl)-propan-1-one] were, in that order, 0.16 nM and 230 nM.

Broadly, the IC50 is the concentration that inhibits the measured activity by half.
